In one assay the target is T1, vanilloid receptor 1 (VR1/TRPV1 receptor) (Homo sapiens, UniProt Q8NER1).
T1 construct: expressed in transfected cells; host or cells: CHO K1
T1 sequence (Q8NER1 whole entry): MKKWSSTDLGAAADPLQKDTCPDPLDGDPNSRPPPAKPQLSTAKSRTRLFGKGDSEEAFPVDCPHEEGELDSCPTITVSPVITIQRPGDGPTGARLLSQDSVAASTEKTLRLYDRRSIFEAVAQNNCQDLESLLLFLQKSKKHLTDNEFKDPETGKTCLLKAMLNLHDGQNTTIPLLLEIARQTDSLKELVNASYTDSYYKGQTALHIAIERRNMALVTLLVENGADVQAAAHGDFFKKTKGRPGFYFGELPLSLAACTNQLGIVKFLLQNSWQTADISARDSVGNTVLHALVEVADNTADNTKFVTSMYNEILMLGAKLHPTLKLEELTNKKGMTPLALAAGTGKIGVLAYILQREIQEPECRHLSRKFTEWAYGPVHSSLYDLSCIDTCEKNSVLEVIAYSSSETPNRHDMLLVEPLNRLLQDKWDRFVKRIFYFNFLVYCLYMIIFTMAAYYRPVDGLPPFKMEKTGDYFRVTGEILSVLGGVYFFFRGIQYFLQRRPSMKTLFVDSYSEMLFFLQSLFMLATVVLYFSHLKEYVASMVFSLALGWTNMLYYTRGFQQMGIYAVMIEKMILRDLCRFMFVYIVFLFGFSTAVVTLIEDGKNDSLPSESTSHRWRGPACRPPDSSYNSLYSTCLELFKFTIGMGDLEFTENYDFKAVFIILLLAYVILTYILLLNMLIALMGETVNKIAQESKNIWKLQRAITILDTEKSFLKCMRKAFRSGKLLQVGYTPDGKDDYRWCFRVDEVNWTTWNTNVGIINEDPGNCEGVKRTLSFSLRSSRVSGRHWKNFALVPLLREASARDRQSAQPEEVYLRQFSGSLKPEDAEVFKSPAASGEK
The assay is described as follows: Functional testing on the vanilloid receptor 1 (VR1/TRPV1): FLIPR Ca2+ influx assay, displacement of capsaicin. Type of assay: cell-based, human being. To be noted: 1 μM compound; capsaicin (Cap); human being; read-out: inhibition (as a percentage) at the concentration after @, Cap. Put shortly: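 Fluo-4 FLIPR Ca2+ influx in CHO K1 cells transfected with human VR1, measuring displacement of 100 nM capsaicin; rat VR1 agonism/antagonism also assessed in rat dorsal root ganglion neurons cultured 2–3 days at 37° C with 25 ng/mL NGF, then loaded with 2 μM Fluo-4.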
Consider `CC(C)(C)c1cc(CNC(=O)Nc2ccc(CS(C)(=O)=O)nc2)n(-c2cccc(Cl)c2)n1` [Example 159, 1-((3-tert-butyl-1-(3-chlorophenyl)-1H-pyrazol-5-yl)methyl)-3-(6-(methylsulfonylmethyl)pyridin-3-yl)urea], for which the inhibition at 1 µM is 29%.

The assay is the same for the next values; noted with them: 5 μM compound; capsaicin (Cap); human being; read-out: inhibition (as a percentage) at the concentration after @, Cap.
On to `Cc1nc(CO)ccc1NC(=O)NCc1cc(C(F)(F)F)nn1-c1cccc(Cl)c1` [Example 141, 1-((1-(3-chlorophenyl)-3-(trifluoromethyl)-1H-pyrazol-5-yl)methyl)-3-(6-(hydroxymethyl)-2-methylpyridin-3-yl)urea], for which the inhibition at 5 µM came to 51%.

The same assay, now with this note: capsaicin (Cap) as stimulus; Ki from IC50 by Cheng-Prusoff; read-out: (f) Ki (human being) [nM] Cap.
Broadly, the Ki is a dissociation constant, usually derived from enzyme kinetics or from competition with a known ligand. On to `Cc1ccc(NC(=O)NCc2cc(C(F)(F)F)nn2-c2cccc(Cl)c2)cn1` [Example 136, 1-((1-(3-chlorophenyl)-3-(trifluoromethyl)-1H-pyrazol-5-yl)methyl)-3-(6-methylpyridin-3-yl)urea], for which the Ki was determined as 47 nM.

Regarding `Cc1cncc(NC(=O)NCc2cc(C(F)(F)F)nn2-c2cccc(Cl)c2)c1` [Example 137, 1-((1-(3-chlorophenyl)-3-(trifluoromethyl)-1H-pyrazol-5-yl)methyl)-3-(5-methylpyridin-3-yl)urea], the Ki turned out to be 55 nM.

With `Cc1cc(C)c(NC(=O)NCc2cc(C(F)(F)F)nn2-c2cccc(Cl)c2)cn1` [Example 138, 1-((1-(3-chlorophenyl)-3-(trifluoromethyl)-1H-pyrazol-5-yl)methyl)-3-(4,6-dimethylpyridin-3-yl)urea], the Ki was found to be 90 nM. `CC(C)(C)c1cc(CNC(=O)Nc2ccc(CO)cn2)n(-c2cccc(Cl)c2)n1` [Example 139, 1-((3-tert-butyl-1-(3-chlorophenyl)-1H-pyrazol-5-yl)methyl)-3-(5-(hydroxymethyl)pyridin-2-yl)urea]: the Ki was 109 nM.

`CC(C(=O)NCc1cc(C(F)(F)F)nn1-c1cccc(Cl)c1)c1cnc(CO)c(F)c1` (stereo not drawn) [Example 142, N-((1-(3-chlorophenyl)-3-(trifluoromethyl)-1H-pyrazol-5-yl)methyl)-2-(5-fluoro-6-(hydroxymethyl)pyridin-3-yl)propanamide]: the Ki turned out to be 1.5 nM.

In the case of `Cc1nc(CCO)ccc1NC(=O)NCc1cc(C(F)(F)F)nn1-c1cccc(Cl)c1` [Example 143, 1-((1-(3-chlorophenyl)-3-(trifluoromethyl)-1H-pyrazol-5-yl)methyl)-3-(6-(2-hydroxyethyl)-2-methylpyridin-3-yl)urea], the Ki is 84 nM. Still for that read-out and setting: in the case of `CC(C)(C)c1cc(CNC(=O)Nc2ccc(C(O)CO)nc2)n(-c2cccc(Cl)c2)n1` (stereo not drawn) [Example 144, 1-((3-tert-butyl-1-(3-chlorophenyl)-1H-pyrazol-5-yl)methyl)-3-(6-(1,2-dihydroxyethyl)pyridin-3-yl)urea] it was 24 nM; in that of `O=C(NCc1cc(C(F)(F)F)nn1-c1cccc(Cl)c1)Nc1ccc(C(O)CO)nc1` (stereo not drawn) [Example 145, 1-((1-(3-chlorophenyl)-3-(trifluoromethyl)-1H-pyrazol-5-yl)methyl)-3-(6-(1,2-dihydroxyethyl)pyridin-3-yl)urea], 121 nM. Still for that read-out and setting: in the case of `CC(C(=O)NCc1cc(C(F)(F)F)nn1-c1cccc(Cl)c1)c1ccc(NCCO)nc1` (stereo not drawn) [Example 146, N-((1-(3-chlorophenyl)-3-(trifluoromethyl)-1H-pyrazol-5-yl)methyl)-2-(6-(2-hydroxyethylamino)pyridin-3-yl)propanamide] it was 0.6 nM; in that of `COCCNc1ccc(C(C)C(=O)NCc2cc(C(F)(F)F)nn2-c2cccc(Cl)c2)cn1` (stereo not drawn) [Example 147, N-((1-(3-chlorophenyl)-3-(trifluoromethyl)-1H-pyrazol-5-yl)methyl)-2-(6-(2-methoxyethylamino)pyridin-3-yl)propanamide], 18 nM; in that of `CC(C(=O)NCc1cc(C(F)(F)F)nn1-c1cccc(Cl)c1)c1ccc(N(C)CCO)nc1` (stereo not drawn) [Example 148, N-((1-(3-chlorophenyl)-3-(trifluoromethyl)-1H-pyrazol-5-yl)methyl)-2-(6-((2-hydroxyethyl)(methyl)amino)pyridin-3-yl)propanamide], 15 nM.

With `CC(C(=O)NCc1cc(C(F)(F)F)nn1-c1ccc(F)c(Cl)c1)c1ccc(CCO)nc1` (stereo not drawn) [Example 149, N-((1-(3-chloro-4-fluorophenyl)-3-(trifluoromethyl)-1H-pyrazol-5-yl)methyl)-2-(6-(2-hydroxyethyl)pyridin-3-yl)propanamide], the Ki was 28 nM. The same measure, in the same setting: with `CC(C(=O)NCc1cc(C2CC2)nn1-c1cccc(Cl)c1)c1ccc(CCO)nc1` (stereo not drawn) [Example 150, N-((1-(3-chlorophenyl)-3-cyclopropyl-1H-pyrazol-5-yl)methyl)-2-(6-(2-hydroxyethyl)pyridin-3-yl)propanamide] the figure was 59 nM; with `Cc1cccc(-n2nc(C(F)(F)F)cc2CNC(=O)C(C)c2ccc(CCO)nc2)c1` (stereo not drawn) [Example 151, 2-(6-(2-hydroxyethyl)pyridin-3-yl)-N-((1-m-tolyl-3-(trifluoromethyl)-1H-pyrazol-5-yl)methyl)propanamide], 49 nM; with `CC(C)(C)c1cc(CNC(=O)Nc2ccc(CCO)nc2)n(-c2cccc(F)c2)n1` [Example 152, 1-((3-tert-butyl-1-(3-fluorophenyl)-1H-pyrazol-5-yl)methyl)-3-(6-(2-hydroxyethyl)pyridin-3-yl)urea], 85 nM. Consider `COc1cccc(-n2nc(C(C)(C)C)cc2CNC(=O)Nc2ccc(CCO)nc2)c1` [Example 153, 1-((3-tert-butyl-1-(3-methoxyphenyl)-1H-pyrazol-5-yl)methyl)-3-(6-(2-hydroxyethyl)pyridin-3-yl)urea], for which the Ki amounted to 50 nM. Same read-out and setting: with `CC(C)(C)c1cc(CNC(=O)Nc2ccc(NCCO)nc2)n(-c2cccc(F)c2)n1` [Example 154, 1-((3-tert-butyl-1-(3-fluorophenyl)-1H-pyrazol-5-yl)methyl)-3-(6-(2-hydroxyethylamino)pyridin-3-yl)urea] the figure was 38 nM; with `O=C(NCc1cc(C(F)(F)F)nn1-c1cc(F)cc(F)c1)Nc1ccc(NCCO)nc1` [Example 155, 1-((1-(3,5-difluorophenyl)-3-(trifluoromethyl)-1H-pyrazol-5-yl)methyl)-3-(6-(2-hydroxyethylamino)pyridin-3-yl)urea], 35 nM.

`Cc1cc(-n2nc(C(F)(F)F)cc2CNC(=O)Nc2ccc(NCCO)nc2)ccc1Cl` [Example 156, 1-((1-(4-chloro-3-methylphenyl)-3-(trifluoromethyl)-1H-pyrazol-5-yl)methyl)-3-(6-(2-hydroxyethylamino)pyridin-3-yl)urea]: the Ki turned out to be 29 nM. The same measure, in the same setting: in the case of `COc1ccc(-n2nc(C(F)(F)F)cc2CNC(=O)Nc2ccc(NCCO)nc2)cc1C` [Example 157, 1-(6-(2-hydroxyethylamino)pyridin-3-yl)-3-((1-(4-methoxy-3-methylphenyl)-3-(trifluoromethyl)-1H-pyrazol-5-yl)methyl)urea] it was 112 nM; in that of `Cc1cc(-n2nc(C(F)(F)F)cc2CNC(=O)Nc2ccc(NCCO)nc2)ccc1F` [Example 158, 1-((1-(4-fluoro-3-methylphenyl)-3-(trifluoromethyl)-1H-pyrazol-5-yl)methyl)-3-(6-(2-hydroxyethylamino)pyridin-3-yl)urea], 77 nM. For `CC(C)(C)c1cc(CNC(=O)Nc2ccc(CO)nc2)n(-c2cccc(F)c2)n1` [Example 160, 1-((3-tert-butyl-1-(3-fluorophenyl)-1H-pyrazol-5-yl)methyl)-3-(6-(hydroxymethyl)pyridin-3-yl)urea], the Ki is 75 nM.

The record behind these values is patent US20130029962A1, “Substituted Heteroaromatic Pyrazole-Containing Carboxamide and Urea Compounds as Vanilloid Receptor Ligands” (Gruenenthal GmbH, priority 2011, published 2013).
